In ChEMBL document CHEMBL1141470, “4-(Heteroarylaminomethyl)-N-(2-aminophenyl)-benzamides and their analogs as a novel class of histone deacetylase inhibitors” (Bioorg Med Chem Lett, 2008):
Activity calls are given as the source filed them. The calls are words filed in the database; no cut-off is given here.

Legend:
Histone deacetylase 1 [1] = molecular target: T1, Histone deacetylase 1 (Homo sapiens, UniProt Q13547); experiment: Inhibition of recombinant HDAC1
HMEC = experiment: Cytotoxicity against human HMEC cells by MTT assay; assay type: cell-based
Histone deacetylase 1 [2] = molecular target: T1, Histone deacetylase 1; experiment: Inhibition of HDAC1 in human T24 cells assessed as induction of histone H4 acetylation after 16 hrs relative to MS-275; assay type: cell-based, T-24
HCT-116 [3] = experiment: Cytotoxicity against human HCT116 cells by MTT assay; assay type: functional, cell-based
T-24 = experiment: Induction of p21WAF1/CIP1 expression in human T24 cells; assay type: functional, cell-based
PANC-1 = experiment: Antitumor activity in human PANC1 cells xenografted mouse assessed as tumor growth inhibition at 20 mg/kg, ip qd after 14 days relative to control; assay type: functional; parameters: scale not given: the % may be the effect or the level left; details: route intraperitoneal
SW48 [4] = experiment: Antitumor activity in human SW48 cells xenografted mouse assessed as tumor growth inhibition at 20 mg/kg, ip qd after 14 days relative to control; assay type: functional; parameters: scale not given: the % may be the effect or the level left; details: route intraperitoneal
A549 [5] = experiment: Antitumor activity in human A549 cells xenografted mouse assessed as tumor growth inhibition at 20 mg/kg, ip qd after 14 days relative to control; assay type: functional; parameters: scale not given: the % may be the effect or the level left; details: route intraperitoneal
HCT-116 [6] = experiment: Cell cycle arrest in human HCT116 cells by accumulation at G2/M phase; assay type: functional, cell-based
COLO 205 = experiment: Antitumor activity in human COLO205 cells xenografted mouse assessed as tumor growth inhibition at 90 mg/kg, po qd after 14 days relative to control; assay type: functional; parameters: scale not given: the % may be the effect or the level left
A549 [7] = experiment: Antitumor activity in human A549 cells xenografted mouse assessed as tumor growth inhibition at 90 mg/kg, po qd after 14 days relative to control; assay type: functional; parameters: scale not given: the % may be the effect or the level left
SW48 [8] = experiment: Antitumor activity in human SW48 cells xenografted mouse assessed as tumor growth inhibition at 90 mg/kg, po qd after 14 days relative to control; assay type: functional; parameters: scale not given: the % may be the effect or the level left

T1 sequence (Q13547 whole entry): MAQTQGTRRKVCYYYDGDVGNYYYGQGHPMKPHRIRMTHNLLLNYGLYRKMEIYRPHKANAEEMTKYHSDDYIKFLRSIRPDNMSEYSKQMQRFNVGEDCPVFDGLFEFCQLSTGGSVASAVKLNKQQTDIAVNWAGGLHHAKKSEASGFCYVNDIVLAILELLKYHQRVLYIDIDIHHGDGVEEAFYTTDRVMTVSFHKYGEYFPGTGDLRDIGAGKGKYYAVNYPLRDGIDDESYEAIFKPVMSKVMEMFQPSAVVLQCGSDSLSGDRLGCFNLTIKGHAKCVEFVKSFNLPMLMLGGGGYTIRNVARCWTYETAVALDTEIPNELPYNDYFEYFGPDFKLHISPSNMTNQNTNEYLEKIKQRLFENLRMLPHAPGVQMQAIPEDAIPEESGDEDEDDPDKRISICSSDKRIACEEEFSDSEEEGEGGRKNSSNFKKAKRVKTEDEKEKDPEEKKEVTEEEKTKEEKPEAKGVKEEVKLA

Q: What does the source list for `Nc1ccccc1NC(=O)c1ccc(CSc2nc3ccc(NCCN4CCOCC4)cc3s2)cc1`?
A: IC50 (Histone deacetylase 1 [1]): 70 nM; IC50 (HMEC): 15000 nM; EC50 (Histone deacetylase 1 [2]): 5000 nM; IC50 (HCT-116 [3]): 200 nM

Q: For `Cn1ccnc1SCc1ccc(C(=O)Nc2ccccc2N)cc1`, which IC50 (Histone deacetylase 1 [1]) is on record?
A: 1000 nM

Q: What about the IC50 (HCT-116 [3]) of the same compound?
A: 5000 nM

Q: For `Nc1ccccc1NC(=O)c1ccc(CNc2nc3ccc(OCCN4CCOCC4)cc3s2)cc1`, which EC50 (T-24) is on record?
A: 1000 nM

Q: And the Activity (PANC-1)?
A: 70%

Q: And the IC50 (Histone deacetylase 1 [1])?
A: 60 nM

Q: What about the Activity (SW48 [4]) of the same compound?
A: 74%

Q: And the IC50 (HMEC)?
A: 15000 nM

Q: What about the Activity (A549 [5]) of the same compound?
A: 65%

Q: What about the EC50 (Histone deacetylase 1 [2]) of the same compound?
A: 1000 nM

Q: What about the Activity (HCT-116 [6]) of the same compound?
A: Active

Q: What about the Activity (COLO 205) of the same compound?
A: 62%

Q: And the IC50 (HCT-116 [3])?
A: 200 nM

Q: And the Activity (A549 [7])?
A: 65%

Q: And the Activity (SW48 [8])?
A: 72%

Q: What does the source list for `COc1ccc2nc(NCc3ccc(C(=O)Nc4ccccc4N)cc3)sc2c1`?
A: EC50 (T-24): 800 nM; IC50 (Histone deacetylase 1 [1]): 30 nM; IC50 (HMEC): 5000 nM; EC50 (Histone deacetylase 1 [2]): 1000 nM; Activity (HCT-116 [6]): Active; IC50 (HCT-116 [3]): 200 nM

Q: Which results are given for `Nc1ccccc1NC(=O)c1ccc(CNc2cc(-c3ccccc3)[nH]n2)cc1`?
A: IC50 (Histone deacetylase 1 [1]): 70 nM; IC50 (HCT-116 [3]): 300 nM

Q: With `Nc1ccccc1NC(=O)c1ccc(CSc2nc3ccccc3s2)cc1` as the compound, how does the IC50 (Histone deacetylase 1 [1]) read?
A: 100 nM

Q: And the IC50 (HMEC)?
A: 3000 nM

Q: What about the EC50 (Histone deacetylase 1 [2]) of the same compound?
A: 3000 nM

Q: What about the IC50 (HCT-116 [3]) of the same compound?
A: 800 nM

Q: What does the source list for `Nc1ccccc1NC(=O)c1ccc(CNc2ncc(-c3ccc(Cl)cc3)s2)cc1`?
A: IC50 (Histone deacetylase 1 [1]): 300 nM; IC50 (HCT-116 [3]): 300 nM

Q: What does the source list for `Nc1ccccc1NC(=O)c1ccc(CSc2nc3ccc(NCc4cccnc4)cc3s2)cc1`?
A: IC50 (Histone deacetylase 1 [1]): 800 nM; IC50 (HMEC): > 50000 nM; EC50 (Histone deacetylase 1 [2]): 2000 nM; IC50 (HCT-116 [3]): 1000 nM

Q: For `CSc1nnc(NCc2ccc(C(=O)Nc3ccccc3N)cc2)[nH]1`, which IC50 (Histone deacetylase 1 [1]) is on record?
A: 200 nM

Q: What about the IC50 (HCT-116 [3]) of the same compound?
A: 600 nM

Q: What does the source list for `Nc1ccccc1NC(=O)c1ccc(CNc2nc3ccccc3[nH]2)cc1`?
A: IC50 (Histone deacetylase 1 [1]): 100 nM; IC50 (HMEC): 27000 nM; EC50 (Histone deacetylase 1 [2]): 1000 nM; IC50 (HCT-116 [3]): 300 nM

Q: What does the source list for `Nc1ccccc1NC(=O)c1ccc(CSc2nnc(-c3ccccc3)o2)cc1`?
A: IC50 (Histone deacetylase 1 [1]): 80 nM; IC50 (HCT-116 [3]): 400 nM

Q: How did the IC50 (Histone deacetylase 1 [1]) turn out when `Nc1ccccc1NC(=O)c1ccc(CNc2nc3cc(Cl)ccc3o2)cc1` was run?
A: 100 nM

Q: What about the IC50 (HMEC) of the same compound?
A: 17000 nM

Q: And the EC50 (Histone deacetylase 1 [2])?
A: 1000 nM

Q: And the IC50 (HCT-116 [3])?
A: 200 nM

Q: Which results are given for `COc1ccc2nc(SCc3ccc(C(=O)Nc4ccccc4N)cc3)[nH]c2c1`?
A: EC50 (T-24): 600 nM; IC50 (Histone deacetylase 1 [1]): 70 nM; IC50 (HMEC): 10000 nM; EC50 (Histone deacetylase 1 [2]): 1000 nM; Activity (HCT-116 [6]): Active; IC50 (HCT-116 [3]): 200 nM

Q: How did the IC50 (Histone deacetylase 1 [1]) turn out when `Nc1ccccc1NC(=O)c1ccc(CSc2ncc[nH]2)cc1` was run?
A: 500 nM

Q: What about the IC50 (HCT-116 [3]) of the same compound?
A: 5000 nM

Q: For `Nc1ccccc1NC(=O)c1ccc(CSc2nc3ccccc3[nH]2)cc1`, which IC50 (Histone deacetylase 1 [1]) is on record?
A: 90 nM

Q: And the IC50 (HMEC)?
A: 14000 nM

Q: What about the EC50 (Histone deacetylase 1 [2]) of the same compound?
A: < 1000 nM

Q: What about the IC50 (HCT-116 [3]) of the same compound?
A: 300 nM

Q: For `Nc1ccccc1NC(=O)c1ccc(CNc2ncc(Br)s2)cc1`, which IC50 (Histone deacetylase 1 [1]) is on record?
A: 400 nM

Q: What about the IC50 (HCT-116 [3]) of the same compound?
A: 400 nM

Q: Which IC50 (Histone deacetylase 1 [1]) does the source give for `Nc1ccccc1NC(=O)c1ccc(CSc2nc3ccc(NCc4ccccn4)cc3s2)cc1` here?
A: 70 nM

Q: What about the IC50 (HMEC) of the same compound?
A: 8000 nM

Q: And the EC50 (Histone deacetylase 1 [2])?
A: 3000 nM

Q: What about the IC50 (HCT-116 [3]) of the same compound?
A: 1000 nM

Q: For `Nc1ccccc1NC(=O)c1ccc(CNc2nc3ccc(Br)cc3s2)cc1`, which IC50 (Histone deacetylase 1 [1]) is on record?
A: 50 nM

Q: What about the IC50 (HMEC) of the same compound?
A: 6000 nM

Q: What about the EC50 (Histone deacetylase 1 [2]) of the same compound?
A: 2000 nM

Q: And the IC50 (HCT-116 [3])?
A: 400 nM
